Reference: patent publication US20200172549A1, “NOVEL CHLORIN E6-CURCUMIN DERIVATIVES, PREPARATION METHOD THEREOF, AND PHARMACEUTICAL COMPOSITION CONTAINING THE SAME FOR TREATMENT OF CANCER” (DONG SUNG PHARM. CO., LTD., priority 2017, published 2020)

Assays:
[1] = Photophysical properties (absorption) in DMSO; type: physicochemical
Method: The photophysical properties of Ce6-curcumin conjugates and dimethyl ester ce6 were analyzed in dimethyl sulfoxide (DMSO). All the photosensitizers 7, 10, 13, and 16 (Formula IV) effectively absorbed the red light compared to dimethyl ester ce6. The major soret peak at λmax=405-408 nm and Q-bands at 667 nm for the photosensitizers 7, 10, 13, and 16 (Formula IV) and Q band peak at 656 for dimethyl ester ce6.

PANC-1 = assay: Phototoxicity (PDT), MTT assay, PANC-1; type: cell-based; settings: for Cell viability, Phototoxicity against PANC-1: 3 h, 50 mW 0.09 J/cm^2 laser 100 sec, 72 h incubation
Method: (§1) Phototoxicity: The culture of AsPC-1 pancreatic cancer cells were grown in RPMI-1640 medium (life technologies corporation, USA) supplemented with 10% heat-inactivated fetal bovine serum (life technologies corporation, USA) and 1% penicillin (life technologies corporation, USA), whereas MIA-paca2 and PANC-1 cells were grown in DMEM. The MTT assay was used to assess the cell viability of AsPC-1, MIA-paca2, PANC-1 cells. The cells attached to a 96-well plate (5,000 cells/well) were treated with 3.125 μM, 6.25 μM, 12.5 μM, 25 μM, 50 μM of photosensitizers, 7, 10, 13, 16, and 3 for 3 h. The photosensitized cells were then irradiated with a 50 mW, 0.09 J/cm^2 laser for 100 sec. The cells were then incubated for 72 h at 37° C. in a 5% CO2 incubator and exposed to MTT [3-(4,5-dimethylthiazol-2-yl)-2,5-diphenyl-tetrazolium bromide] (250 μg/ml) for 3 h. The solution was changed to 200 μl of dimethylsulfoxide (DMSO, Sigma). After 30 min incubation and shaking in microplate mixer, the optical density (OD) was measured using a microplate reader (Thermo Fisher scientific, USA) at 570 nm wavelength. The cell viability was calculated using the following formula: Cell viability (%)=Mean optical density of treated wells/Mean optical density of control wells×100.

MIA-PaCa-2 [2] = assay: Phototoxicity (PDT), MTT assay, MIA-PaCa-2; type: cell-based; settings: for Cell viability, Phototoxicity against MIA-PaCa-2: 3 h, 50 mW 0.09 J/cm^2 laser 100 sec, 72 h incubation
Method: as §1

MIA-PaCa-2 [3] = assay: Dark cytotoxicity, MTT assay, MIA-PaCa-2; type: cell-based; settings: 3 h, no light, 72 h incubation
Method: as §1, with “Dark cytotoxicity:” for “Phototoxicity:”, “1” for “1%”, “h.” for “h. The photosensitized cells were then irradiated with a 50 mW, 0.09 J/cm^2 laser for 100 sec.”

[4] = system: AsPC-1 pancreatic cancer cells; assay: Phototoxicity (PDT), MTT assay, AsPC-1; type: cell-based; settings: for Cell viability, Phototoxicity against AsPC-1: 3 h, 50 mW 0.09 J/cm^2 laser 100 sec, 72 h incubation
Method: as §1

[5] = system: AsPC-1 pancreatic cancer cells; assay: Dark cytotoxicity, MTT assay, AsPC-1; type: cell-based; settings: 3 h, no light, 72 h incubation
Method: as §1, with “Dark cytotoxicity:” for “Phototoxicity:”, “1” for “1%”, “h.” for “h. The photosensitized cells were then irradiated with a 50 mW, 0.09 J/cm^2 laser for 100 sec.”

[6] = Dark cytotoxicity, MTT assay, MIA-PaCa-2; type: cell-based; settings: human, MIA-PaCa-2 cells, 3 h, no light, 72 h incubation, read-out: Cell viability, Dark cytotoxicity against MIA-PaCa-2
Method: as §1, with “Dark cytotoxicity:” for “Phototoxicity:”, “1” for “1%”, “h.” for “h. The photosensitized cells were then irradiated with a 50 mW, 0.09 J/cm^2 laser for 100 sec.”

[7] = Dark cytotoxicity, MTT assay, AsPC-1; type: cell-based; settings: human, AsPC-1 pancreatic cancer cells, 3 h, no light, 72 h incubation, read-out: Cell viability, Dark Cytotoxicity against AsPC-1
Method: as §1, with “Dark cytotoxicity:” for “Phototoxicity:”, “1” for “1%”, “h.” for “h. The photosensitized cells were then irradiated with a 50 mW, 0.09 J/cm^2 laser for 100 sec.”

[8] = 12.5 μM concentration, with light

Structure (SMILES) | Q-band peak [1] | Cell viability, Phototoxicity against PANC-1 (PANC-1; 3.12 μM photosensitizer) | Cell viability, Phototoxicity against PANC-1 (PANC-1; 6.25 μM photosensitizer) | Cell viability, Phototoxicity against PANC-1 (PANC-1; 12.5 μM photosensitizer) | Cell viability, Phototoxicity against PANC-1 (PANC-1; 25 μM photosensitizer) | Cell viability, Phototoxicity against PANC-1 (PANC-1; 50 μM photosensitizer) | Cell viability, Phototoxicity against MIA-PaCa-2 (MIA-PaCa-2 [2]; 3.12 μM photosensitizer) | Cell viability, Phototoxicity against MIA-PaCa-2 (MIA-PaCa-2 [2]; 6.25 μM photosensitizer) | Cell viability, Phototoxicity against MIA-PaCa-2 (MIA-PaCa-2 [2]; 12.5 μM photosensitizer) | Cell viability, Phototoxicity against MIA-PaCa-2 (MIA-PaCa-2 [2]; 25 μM photosensitizer) | Cell viability, Phototoxicity against MIA-PaCa-2 (MIA-PaCa-2 [2]; 50 μM photosensitizer) | Cell viability, Phototoxicity against AsPC-1 ([4]; 3.12 μM photosensitizer) | Cell viability, Phototoxicity against AsPC-1 ([4]; 6.25 μM photosensitizer) | Cell viability, Phototoxicity against AsPC-1 ([4]; 12.5 μM photosensitizer) | Cell viability, Phototoxicity against AsPC-1 ([4]; 25 μM photosensitizer) | Cell viability, Phototoxicity against AsPC-1 ([4]; 50 μM photosensitizer) | further results
C=Cc1c(C)c2cc3nc(c(CC(=O)OC)c4[nH]c(cc5nc(cc1[nH]2)C(C)=C5CC)c(C)c4C(=O)NCCCNC(=O)CCCC(=O)Oc1ccc(/C=C/C(=O)CC(=O)/C=C/c2ccc(O)c(OC)c2)cc1OC)C(CCC(=O)OC)C3C (stereo not shown) [Compound 7, Chlorine e6-curcumin Conjugate (7)] | 667 nm | 66.14% | 31.56% | 12.33% | 11.58% | 11.87% | 69.70% | 12.35% | 6.03% | 5.18% | 4.99% | 85.97% | 43.03% | 24.03% | 10.35% | 6.63% | Inhibition of PANC-1 (PDT) (PANC-1; [8]): 88%; Inhibition of MIA-PaCa-2 (PDT) (MIA-PaCa-2 [2]; [8]): 94%; Cell viability, Dark cytotoxicity against MIA-PaCa-2 (MIA-PaCa-2 [3]; 3.12 μM photosensitizer): 107.39%; Cell viability, Dark cytotoxicity against MIA-PaCa-2 (MIA-PaCa-2 [3]; 6.25 μM photosensitizer): 104.17%; Cell viability, Dark cytotoxicity against MIA-PaCa-2 (MIA-PaCa-2 [3]; 12.5 μM photosensitizer): 101.89%; Cell viability, Dark cytotoxicity against MIA-PaCa-2 (MIA-PaCa-2 [3]; 25 μM photosensitizer): 99.23%; Cell viability, Dark cytotoxicity against MIA-PaCa-2 (MIA-PaCa-2 [3]; 50 μM photosensitizer): 88.84%; Inhibition of AsPC-1 (PDT) [4, 8]: 75%; Cell viability, Dark Cytotoxicity against AsPC-1 ([5]; 3.12 μM photosensitizer): 100.58%; Cell viability, Dark Cytotoxicity against AsPC-1 ([5]; 6.25 μM photosensitizer): 101.61%; Cell viability, Dark Cytotoxicity against AsPC-1 ([5]; 12.5 μM photosensitizer): 103.72%; Cell viability, Dark Cytotoxicity against AsPC-1 ([5]; 25 μM photosensitizer): 97.17%; Cell viability, Dark Cytotoxicity against AsPC-1 ([5]; 50 μM photosensitizer): 90.14%
C=Cc1c(C)c2cc3nc(c(CC(=O)OC)c4[nH]c(cc5nc(cc1[nH]2)C(C)=C5CC)c(C)c4C(=O)NCCCOCCOCCOCCCNC(=O)CCCC(=O)Oc1ccc(/C=C/C(=O)CC(=O)/C=C/c2ccc(O)c(OC)c2)cc1OC)[C@@H](CCC(=O)OC)[C@@H]3C [Compound 16, Chlorine e6-curcumin Conjugate (16)] | 667 nm | 97.36% | 89.19% | 59.07% | 24.07% | 20.24% | 80.67% | 17.62% | 9.49% | 8.03% | 9.67% | 87.29% | 45.79% | 32.67% | 25.46% | 27.83% | inhibition at 25 µM (PANC-1; Homo sapiens, PANC-1, 25 μM concentration, with light): 76%; inhibition at 25 µM (MIA-PaCa-2 [2]; Homo sapiens, MIA PaCa-2, 25 μM concentration, with light): 92%; viability at 3.12 μM ([6]; 3.12 μM photosensitizer): 122%; viability at 6.25 μM ([6]; 6.25 μM photosensitizer): 121%; viability at 12.5 μM ([6]; 12.5 μM photosensitizer): 113%; viability at 25 μM ([6]; 25 μM photosensitizer): 101%; viability at 50 μM ([6]; 50 μM photosensitizer): 72.8%; inhibition at 25 µM ([4]; Homo sapiens, ASPC1, 25 μM concentration, with light): 75%; viability at 3.12 μM ([7]; 3.12 μM photosensitizer): 99.9%; viability at 6.25 μM ([7]; 6.25 μM photosensitizer): 103%; viability at 12.5 μM ([7]; 12.5 μM photosensitizer): 103%; viability at 25 μM ([7]; 25 μM photosensitizer): 80.4%; viability at 50 μM ([7]; 50 μM photosensitizer): 84.1%
